According to ChEMBL document CHEMBL1944567, “Synthesis, biological evaluation, and molecular modeling of chalcone derivatives as potent inhibitors of Mycobacterium tuberculosis protein tyrosine phosphatases (PtpA and PtpB)” (J Med Chem, 2012):

Target: T1, Low molecular weight protein-tyrosine phosphatase A (Mycobacterium tuberculosis, UniProt P9WIA1)
T1 sequence (P9WIA1 whole entry): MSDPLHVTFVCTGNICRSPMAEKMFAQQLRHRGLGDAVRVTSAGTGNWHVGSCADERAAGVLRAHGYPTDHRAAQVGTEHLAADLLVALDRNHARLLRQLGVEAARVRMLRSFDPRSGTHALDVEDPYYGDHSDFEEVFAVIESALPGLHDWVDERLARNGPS
Assay: Inhibition of Mycobacterium tuberculosis PTP-A

For `COc1cc(-c2[nH]ccc2Cl)oc1C1=C2N=C3C=C2[C@H](C(C)C)[C@H]1CCCCCCCC3` [ROSEOPHILIN], the IC50 was 8.8 µM.

Compound `CCCCCC1=C/C(=C/c2[nH]c(-c3ccc[nH]3)cc2OC)N=C1C` [PRODIGIOSIN] has an IC50 of 8.8 µM.
